Experiment: xn = mol fraction of the nth substance listed
Settings: Liquid, Vibrating tube method

CC1=CC[C@H]2C[C@@H]1C2(C)C [(S)-2-pinene] + C=C1CCC2CC1C2(C)C
mass density [kg/m3]
Settings	x1 = 0.1044	x1 = 0.1926	x1 = 0.3036	x1 = 0.3949	x1 = 0.502	x1 = 0.6052	x1 = 0.7022	x1 = 0.7983	x1 = 0.9028	x1 = 1
283.15 K, 20000 kPa	890.1	889	887.9	886.9	885.7	884.7	883.4	882.3	881.1	880
283.15 K, 25000 kPa	893.1	891.9	890.9	889.9	888.7	887.8	886.6	885.4	884.3	883.2
283.15 K, 30000 kPa	896	894.8	893.7	892.9	891.6	890.7	889.3	888.5	887.4	886.3
283.15 K, 35000 kPa	898.9	897.7	896.7	895.8	894.7	893.7	892.5	891.6	890.3	889.4
283.15 K, 40000 kPa	901.7	900.6	899.4	898.6	897.5	896.6	895.3	894.6	893.5	892.5
298.15 K, 20000 kPa	879.6	878.2	876.9	875.8	874.6	873.4	872.3	871.2	870	868.8
298.15 K, 25000 kPa	882.5	881.3	880	879	877.8	876.7	875.6	874.5	873.3	872.1
298.15 K, 30000 kPa	885.3	884.2	883	882	880.8	879.7	878.8	877.6	876.4	875.3
298.15 K, 35000 kPa	888.3	887.3	886.1	885.1	884	882.9	882	880.8	879.7	878.6
298.15 K, 40000 kPa	891.1	890.2	889.1	888	887.1	886	885.1	884	882.9	881.9
313.15 K, 20000 kPa	868	867	865.9	864.9	863.6	862.6	861.4	860.3	859	858
313.15 K, 25000 kPa	871.4	870.3	869.2	868.2	867	865.8	864.7	863.6	862.4	861.3
313.15 K, 30000 kPa	874.6	873.5	872.4	871.4	870.2	869.1	868	866.9	865.7	864.7
313.15 K, 35000 kPa	877.8	876.7	875.5	874.6	873.4	872.3	871.2	870.2	869.1	867.9
313.15 K, 40000 kPa	881.1	879.9	878.7	877.8	876.6	875.5	874.5	873.5	872.4	871.3
328.15 K, 20000 kPa	857.2	855.9	855	853.7	852.5	851.3	850.2	849.1	847.9	846.7
328.15 K, 25000 kPa	860.6	859.5	858.3	857.2	856.1	854.9	853.8	852.7	851.5	850.4
328.15 K, 30000 kPa	864.1	863.1	862	860.8	859.6	858.5	857.4	856.3	855.1	854
328.15 K, 35000 kPa	867.5	866.6	865.4	864.3	863.1	861.9	860.9	859.8	858.6	857.5
328.15 K, 40000 kPa	870.8	870	868.9	867.7	866.6	865.5	864.3	863.4	862.1	861.1
343.15 K, 20000 kPa	846.7	845.5	844.3	843.2	841.9	840.7	839.4	838.3	837	835.9
343.15 K, 25000 kPa	850.5	849.3	848.1	847	845.7	844.6	843.3	842.1	840.9	839.7
343.15 K, 30000 kPa	854.2	853	851.9	850.9	849.6	848.5	847.2	846.2	844.9	843.8
343.15 K, 35000 kPa	857.7	856.6	855.5	854.5	853.3	852.2	851	850	848.7	847.7
343.15 K, 40000 kPa	861.3	860.2	859.1	858.1	857	855.9	854.7	853.7	852.4	851.4
358.15 K, 20000 kPa	835.9	834.6	833.3	832.2	831	829.8	828.5	827.3	826.1	825
358.15 K, 25000 kPa	839.8	838.6	837.4	836.3	835	833.9	832.7	831.5	830.3	829.2
358.15 K, 30000 kPa	843.7	842.5	841.3	840.3	839	838	836.7	835.6	834.4	833.3
358.15 K, 35000 kPa	847.6	846.4	845.2	844.2	843	841.8	840.7	839.6	838.4	837.4
358.15 K, 40000 kPa	851.5	850.4	849.1	848.2	847.1	846	844.8	843.8	842.6	841.5

From the NIST ThermoML archive (doi:10.1016/j.jct.2012.09.012)
